Source: patent US20030073133A1, “Individualization of therapy with erectile dysfunction agents” (McGill University, priority 2001, published 2003)
Where two headings read alike, the source gives them in different places. Marks after values point to notes of the source that are not given here.

Legend:
[1] = tested on: AAMU-Ab; assay: Competitive antigen ELISA, cross-reactivity of AAMU-Ab; assay type: binding, rabbit; settings: 0 = absence of inhibition or inhibition no higher than 40% at highest concentration tested (5 × 10^−3 M)
Method: (§1) Competitive Antigen Elisa
(§2) Buffers and water without additives are filtered through millipore filters and kept for 1 week. BSA, antibodies, Tween™ 20 and horse radish peroxidase conjugates are added to these buffers and water just prior to use. Urine samples are usually collected 4 hours after drinking a cup of coffee (instant or brewed with approximately 100 mg of caffeine per cup) and stored at −80° C. The urine samples are diluted 10 times with sodium phosphate buffer (620 mosm, pH 7.50) and are subsequently diluted with water to give concentrations of AAMU and 1X no higher than 3×10^−6 M in the ELISA. All the pipettings are done with an eight-channel pipette, except those of the antibody and sample solutions. Starting with the last well, 100 μL of a carbonate buffer (100 mM, pH 9.6) containing 2.5 μg mL-1 antibodies are added to each well. After 90 min. at room temperature, the wells are washed three times with 100 mL of TPB: isotonic sodium phosphate buffer (310 mosm, pH 7.50) containing 0.05% Tween™ 20.
(§3) After the initial wash, unoccupied sites are blocked by incubation for 90 min. at room temperature with 100 μL TBP containing 3% BSA. The wells are washed four times with 100 μL TPB. The washing is followed by additions of 50 μL of 12 mg mL^−1 AAMU-HRP or 1X-HRP conjugate in 2× TPB containing 2% BSA, and 50 μL of either water, standard (13 standards; AAMU or 1X, 2×10^−4 to 2×10^−8 M) or sample in duplicate. The microplate is gently shaken with an orbital shaker at room temperature for 3-4 hours. The wells are washed three times with 100 μL TPB containing 1% BSA and three times with water containing 0.05% Tween™ 20. To the washed plate is added 150 μL of a substrate buffer composed of citric acid (25 mM) and sodium phosphate dibasic buffer (50 mM, pH 5.0) containing 0.06% hydrogen peroxide and 0.04% o-phenylenediamine hydrochloride.
as §2, with “were” for “are”, “They were” for “The urine samples are”, “mL-^1” for “mL-1”, “was pipetted.” for “are added to each well.”, “μL” for “mL”
(§4) After the initial wash, unoccupied sites were blocked by incubation for 90 min. at room temperature with 100 μL TBP containing 3% BSA. The wells were washed four times with 100 μL TPB. This was followed by additions of […] of 12 mg mL^−1 AAMU-HRP or 1X-HRP conjugate in 2× TPB containing 2% BSA, and 50 μL of either water, standard (13 standards; AAMU or 1X, 2×10^−4 to 2×10^−8 M) or sample in duplicate. The microplate was gently shaken with an orbital shaker at room temperature for 3-4 hours. The wells were washed three times with 100 μL with TPB containing 1% BSA and three times with water containing 0.05% Tween™ 20. To the washed plate was added 150 μL of a substrate buffer composed of citric acid (25 mM) and sodium phosphate dibasic buffer (50 mM, pH 5.0) containing 0.06% hydrogen peroxide and 0.04% o-phenylenediamine hydrochloride. After 20 min. at room temperature with shaking, the reaction was stopped with 50 μL of 2.5 N HCl.
(§5) The cross reactivities of AAMU-Ab and 1X-Ab were tested using a wide variety of caffeine metabolites and structural analogs (Table 2 below).

[2] = tested on: 1X-Ab; assay: Competitive antigen ELISA, cross-reactivity of 1X-Ab; assay type: binding, rabbit; settings: 0 = absence of inhibition or inhibition no higher than 40% at highest concentration tested (5 × 10^−3 M)
Method: as §1, §2, §3
as §2, with “were” for “are”, “They were” for “The urine samples are”, “mL-^1” for “mL-1”, “was pipetted.” for “are added to each well.”, “μL” for “mL”
as §4, §5

[3] = tested on: impotent men; settings: cited from earlier work
[4] = tested on: poor vs. extensive metabolizers; settings: cited from earlier work
[5] = tested on: slow and fast acetylators; settings: cited from earlier work
[6] = tested on: individuals prescribed sildenafil; settings: postmarketing; cited from earlier work
[7] = intracavernosal, mixed populations

SMILES | % Cross-Reaction AAMU-Ab [1] | % Cross-Reaction IX-Ab [2] [%] | other results
Cn1c(=O)c2c(ncn2C)n(C)c1=O [1,3,7-Trimethyl Xanthine (Caffeine), 1,3,7-Trimethyl Xanthine] | 0% | 0 | 
Cn1c(=O)c2[nH]cnc2n(C)c1=O [1,3-Dimethyl Xanthine (Theophylline), 1,3-Dimethyl Xanthine] | 0% | 0.2 | 
Cn1c(=O)[nH]c2ncn(C)c2c1=O [1,7-Dimethyl Xanthine (Paraxanthine), 1,7-Dimethyl Xanthine] | 0% | 0.5 | 
Cn1c(=O)[nH]c2[nH]c(=O)n(C)c2c1=O [1,7-Dimethyluric acid] | 0% | 0 | 
Cn1c(=O)[nH]c2nc[nH]c2c1=O [1-Methyl Xanthine (1x), 1-Methyl Xanthine] | 0% | 100 | 
Cn1c(=O)[nH]c2[nH]c(=O)[nH]c2c1=O [1-Methyluric acid] | 0% | 11 | 
Cn1cnc2c1c(=O)[nH]c(=O)n2C [3,7-Dimethyl Xanthine (Theobromine), 3,7-Dimethyl Xanthine] | 0% | 0 | 
Cn1c(=O)[nH]c(=O)c2[nH]cnc21 [3-Methyl Xanthine] | 0% | 0 | 
CC(=O)Nc1c(N)n(C)c(=O)n(C)c1=O [5-Acetamino-6-amino-1,3-dimethyluracil] | 0% | 0 | 
CC(=O)Nc1c(N)n(C)c(=O)[nH]c1=O [5-Acetamino-6-amino-1-methyluracil] | 100% | 0 | 
CC(=O)Nc1c(N)[nH]c(=O)[nH]c1=O [5-Acetamino-6-amino-uracil] | 0.6% | 0 | 
Cn1cnc2[nH]c(=O)[nH]c(=O)c21 [7-Methyl Xanthine] | 0% | 0 | 
Cc1nc2[nH]c(=O)[nH]c(=O)c2[nH]1 [8-Methyl Xanthine] | 0% | 0 | 
CCCCC[C@H](O)/C=C/[C@H]1[C@H](O)CC(=O)[C@@H]1CCCCCCC(=O)O [Alprostadil, prostaglandin E1] |  |  | average duration of erection ([3]; intracavernosal): 64 min; attempts in which erections were achieved [3, 7]: 87%; men who achieved erections [3, 7]: Ninety-four
COc1ccc2c(c1)[C@]13CCCC[C@@H]1[C@H](C2)N(C)CC3 [Dextromethorphan] |  |  | mean performance +/−SE ([4]; EMs (extensive metabolizers)): 95+/−0.5%; mean performance +/−SE ([4]; PMs (poor metabolizers)): 86+/−6%
Nc1nc2nc[nH]c2c(=O)[nH]1 [Guanine] | 0% | 0 | 
O=c1[nH]cnc2nc[nH]c12 [Hypoxanthine] | 0% | 0 | 
COc1ccc(Cc2nccc3cc(OC)c(OC)cc23)cc1OC [Papaverine] |  |  | penile fibrosis ([3]; after 1 year of treatment): up to 60%; response rates ([3]; alone or with phentolamine, mixed populations of impotent men): about 50%; average duration of erection ([3]; intracavernosal): 50 min
O=c1cc[nH]c(=O)[nH]1 [Uracil] | 0% | 0 | 
O=c1[nH]c(=O)c2[nH]c(=O)[nH]c2[nH]1 [Uric acid] | 0% | 0 | 
O=c1[nH]c(=O)c2[nH]cnc2[nH]1 [Xanthine] | 0^a % | 0 | 
Nc1ccc(S(=O)(=O)c2ccc(N)cc2)cc1 [dapsone, Dapsone] |  |  | adverse reactions ([5]; fast acetylators): 17%; adverse reactions ([5]; slow acetylators): 46%
CCCc1nn(C)c2c(=O)[nH]c(-c3cc(S(=O)(=O)N4CCN(C)CC4)ccc3OCC)nc12 [sildenafil, Sildenafil] |  |  | deaths identified as having cardiovascular events [6]: Forty-six; deaths with definite or suspected myocardial infarction [6]: 21; individual deaths reported after prescription [6]: 123
